# From patent US9260413B2, “Inhibitors of catechol O-methyl transferase and their use in the treatment of psychotic disorders” (Merck Sharp & Dohme Corp., priority 2013, dated 2016)
# Read-outs that look alike come from different tables or passages of the source.
# Target: purified human COMT enzyme of the Val158 variant (membrane-bound MB-COMT) (Homo sapiens (Human), UniProt P21964)
# Assay: Esculetin or Fluorescence Polarization assay (MB-COMT)
# Type: biochemical
# Protocol: Assays utilized purified human COMT enzyme of the Val158 variant (membrane-bound MB-COMT or soluble S-COMT) containing a C-terminal 6 or 10-histidine tag.
# In a typical experiment the COMT inhibitory activity of the compounds of the present invention was determined in accordance with the following experimental methods detailed below. The fluorescence assay was based on methylation of a substrate (6,7-dihydroxycoumarin or ‘esculetin’) by COMT to produce a highly fluorescent product (7-hydroxy-6-methoxycoumarin or ‘scopoletin’). The reaction requires the presence of magnesium ions and a methyl donor, in this case S-adenosylmethionine (SAM). […] Recombinant enzyme was diluted in assay buffer (100 mM Na2HPO4 pH 7.4, 1 mM DTT, 0.005% Tween-20) and 35 μL was added to assay wells containing 1 μL of compound. Preincubation of COMT enzyme and compound proceeded for 2 hours at room temperature. Enzyme assays were initiated with 5 uL of a mixture containing 40 μM SAM (USB catalog # US10601), 4 μM esculetin (substrate) and 40 mM MgCl2. The formation of product (seopoletin) was monitored over time by fluorescence (excitation 340 nm, emission 460 nm, no lag, 100 μs integration time, 5 flashes, top read) using a Tecan Safire^2 plate reader. Assays were monitored over time until a signal to background of 4 to 1 was achieved. Titration curves and IC50 values were calculated using standard procedures. […] In some cases, compounds were not preincubated with MB-COMT for 2 hours at room temperature prior to starting the enzyme assays.
# To determine IC50 values in the fluorescence polarization assay, solutions of test compounds were prepared and preincubated with COMT enzyme as stated above. […] After 25 minutes incubation at room temperature, reactions were quenched with 5 μL 250 mM EDTA, […]. To quenched reactions, 20 μL of a preformed complex containing S-adenosyl-L-cysteine (SAC) TAMRA tracer (2 mM from Ana spec diluted 1:80,000) and a 1:20 dilution of anti-S-adenosyl-L-homocysteine antibody (mouse monoclonal from Abbott Homocysteine detection kit, catalog #7D29-20) was prepared in assay buffer 11 (Na2HPO4 pH 7.2). Prior to combining with quenched enzyme assays, the SAH antibody/SAC TAMRA tracer complex was preformed at room temperature for 30 minutes while protected from light. Therefore, the final concentration of the SAH antibody/SAC TAMRA mix was 1:60 and 1:240,000, respectively. […] Titration curves and IC50 values were calculated using standard protocols.
# [1] = Esculetin or Fluorescence Polarization assay, Val158 variant
IC50 [1],IC50,Compound
180 nM,–,"Cn1c(-c2ccc(Cl)c(C(F)(F)F)c2)ncc(O)c1=O [Example 1, 2-[4-chloro-3-(trifluoromethyl)phenyl]-5-hydroxy-3-methylpyrimidin-4(3H)-one]"
–,93 nM,"COc1ccc(Oc2cccc(-c3ncc(O)c(=O)n3C)c2)cc1 [Example 5, 5-hydroxy-2-[3-(4-methoxyphenoxy)phenyl]-3-methylpyrimidin-4(3H)-one]"
–,210 nM,"O=c1[nH]c(-c2ccc(C(F)(F)F)cc2)ncc1O [Example 6, 5-Hydroxy-2-(4-trifluoromethyl-phenyl)-3H-pyrimidin-4-one]"
590 nM,–,O=c1[nH]c(-c2cccc(C#Cc3ccccc3)c2)ncc1O [Example 8]
